Assay results reported in US20140249139A1, “Quinazoline Derivatives” (NOVARTIS AG, priority 2011, published 2014).

How the values were obtained:
PI3K delta [1] = target: T1, PI3K delta (Homo sapiens, UniProt O00329); assay: Cellular PI3K delta inhibition: PKB Ser473 phosphorylation in Rat1 cells expressing myr-HA-p110 delta; assay type: cell-based, rat; details: 1 h incubation, read-out: Cell PI3Kd/ IC50
T1 construct: myristylation signal (myr) (N); HA tag (N); expressed in transfected cells; host or cells: Rat1 cells, stably transfected
T1 sequence (O00329 1-1044): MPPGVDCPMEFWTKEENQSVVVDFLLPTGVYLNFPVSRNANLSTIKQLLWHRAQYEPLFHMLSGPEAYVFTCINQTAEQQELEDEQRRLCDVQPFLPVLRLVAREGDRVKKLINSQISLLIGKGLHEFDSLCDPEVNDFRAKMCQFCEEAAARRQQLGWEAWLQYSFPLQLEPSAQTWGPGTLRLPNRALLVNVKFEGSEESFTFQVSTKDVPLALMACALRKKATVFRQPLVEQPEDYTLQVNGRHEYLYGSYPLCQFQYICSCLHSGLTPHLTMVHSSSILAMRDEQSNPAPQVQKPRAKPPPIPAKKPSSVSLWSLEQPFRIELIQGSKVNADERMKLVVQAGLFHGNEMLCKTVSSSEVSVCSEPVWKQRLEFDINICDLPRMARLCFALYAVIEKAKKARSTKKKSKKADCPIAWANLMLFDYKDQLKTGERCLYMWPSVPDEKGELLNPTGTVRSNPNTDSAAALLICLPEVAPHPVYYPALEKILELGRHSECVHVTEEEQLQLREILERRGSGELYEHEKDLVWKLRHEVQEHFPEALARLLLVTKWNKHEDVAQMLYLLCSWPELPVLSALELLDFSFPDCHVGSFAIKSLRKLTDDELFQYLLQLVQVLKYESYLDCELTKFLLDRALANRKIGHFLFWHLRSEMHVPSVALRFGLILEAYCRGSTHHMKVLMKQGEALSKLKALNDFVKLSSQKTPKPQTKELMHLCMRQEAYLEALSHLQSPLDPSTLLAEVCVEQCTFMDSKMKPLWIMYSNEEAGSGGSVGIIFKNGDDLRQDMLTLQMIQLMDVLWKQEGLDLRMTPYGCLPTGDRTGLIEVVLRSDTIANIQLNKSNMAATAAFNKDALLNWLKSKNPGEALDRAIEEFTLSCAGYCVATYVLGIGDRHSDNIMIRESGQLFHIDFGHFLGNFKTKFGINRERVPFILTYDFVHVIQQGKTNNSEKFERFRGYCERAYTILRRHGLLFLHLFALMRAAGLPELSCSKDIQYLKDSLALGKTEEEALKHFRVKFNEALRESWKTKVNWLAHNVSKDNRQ
Method: The compounds tested were prepared as 10 mM stock solutions in DMSO (Merck, #8.02912.2500). Test compounds were prepared in 384 well plates (Greiner PP-Microplate, #781201) in 3-fold serial dilutions in 90% DMSO (Merck, #8.02912.2500) with 8 concentrations starting at 2 mM. Test compounds were prediluted (1:400) in two subsequent 1:20 dilution steps (5 μl+95 μl) from the master plate into starving medium in 384 well plates using a MATRIX PlateMate 2×2 pipettor (384 well-head). 25 μl/well of this 1:400 dilution were then added to the cell culture plate.
The Rat1-myr-HA-p110 alpha, beta and delta cells were trypsinized and counted with a CASY TT cell counter (Schärfe System GmbH, Reutlingen Germany). Rat1 cells expressing myr-HA-p110 alpha, beta and delta were seeded in 384-well plates at 15,000 cells per well in 50 μl/well complete medium and incubated for 20 h at 37° C., 5% CO2 until the cell layers reached 80-90% confluency. […] in 384 well plates using a MATRIX PlateMate 2×2 pipettor (384 well-head). 25 μl/well of this 1:400 dilution were then added to the cell culture plate.
Untreated cells were used as low controls, cells stimulated in absence of compounds were used as high controls. After an incubation of 1 h with compounds, cells were lysed by addition of 15 μl 3× lysis buffer (provided as 5× solution with the SureFire kit) enriched with 0.72% BSA, yielding a total volume of 45 μl cell lysate per well. Cell lysates were either used immediately of stored frozen (in sealed plates) at −20° C. until use. 5 μl of each lysate were transferred to Proxy-plates and mixed with Surefire beads, reaction buffer (containing the appropriate antibodies), activation buffer and dilution buffer according to the instructions of the supplier, yielding a total volume of 12 μl per well (the total final BSA conc. in the assay was 0.1%). After 2 h incubation (with shaking) in the dark at RT, light emission was measured using the EnVision Reader (Perkin Elmer). The difference between high and low controls was taken as 100% and compound effects were expressed as percent inhibition. IC50 values were determined from the dose response curves by graphical extrapolation.

PI3K delta [2] = target: T2, PI3K delta (Homo sapiens, UniProt O00329); assay: Enzymatic PI3K delta isoform inhibition (lipid kinase activity, Kinase-Glo); assay type: biochemical; details: enzymatic assay
T2 construct: for the full-length p110-d subunit are generated and fused by overlapping PCR; His tag (C); made in house; host or cells: baculovirus BV1060; Tn5 (Trichoplusia ni) or TiniPro insect cells
How it was run: (§1)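 Reactions were started with ATP (2 μM solution) after the enzyme (10 nM solution) and phosphatidylinositol substrate (5 μg/ml solution) were added to the DMSO-dissolved compounds.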
T2 sequence (O00329 with tags, fused parts or gaps limits assumed, species assumed): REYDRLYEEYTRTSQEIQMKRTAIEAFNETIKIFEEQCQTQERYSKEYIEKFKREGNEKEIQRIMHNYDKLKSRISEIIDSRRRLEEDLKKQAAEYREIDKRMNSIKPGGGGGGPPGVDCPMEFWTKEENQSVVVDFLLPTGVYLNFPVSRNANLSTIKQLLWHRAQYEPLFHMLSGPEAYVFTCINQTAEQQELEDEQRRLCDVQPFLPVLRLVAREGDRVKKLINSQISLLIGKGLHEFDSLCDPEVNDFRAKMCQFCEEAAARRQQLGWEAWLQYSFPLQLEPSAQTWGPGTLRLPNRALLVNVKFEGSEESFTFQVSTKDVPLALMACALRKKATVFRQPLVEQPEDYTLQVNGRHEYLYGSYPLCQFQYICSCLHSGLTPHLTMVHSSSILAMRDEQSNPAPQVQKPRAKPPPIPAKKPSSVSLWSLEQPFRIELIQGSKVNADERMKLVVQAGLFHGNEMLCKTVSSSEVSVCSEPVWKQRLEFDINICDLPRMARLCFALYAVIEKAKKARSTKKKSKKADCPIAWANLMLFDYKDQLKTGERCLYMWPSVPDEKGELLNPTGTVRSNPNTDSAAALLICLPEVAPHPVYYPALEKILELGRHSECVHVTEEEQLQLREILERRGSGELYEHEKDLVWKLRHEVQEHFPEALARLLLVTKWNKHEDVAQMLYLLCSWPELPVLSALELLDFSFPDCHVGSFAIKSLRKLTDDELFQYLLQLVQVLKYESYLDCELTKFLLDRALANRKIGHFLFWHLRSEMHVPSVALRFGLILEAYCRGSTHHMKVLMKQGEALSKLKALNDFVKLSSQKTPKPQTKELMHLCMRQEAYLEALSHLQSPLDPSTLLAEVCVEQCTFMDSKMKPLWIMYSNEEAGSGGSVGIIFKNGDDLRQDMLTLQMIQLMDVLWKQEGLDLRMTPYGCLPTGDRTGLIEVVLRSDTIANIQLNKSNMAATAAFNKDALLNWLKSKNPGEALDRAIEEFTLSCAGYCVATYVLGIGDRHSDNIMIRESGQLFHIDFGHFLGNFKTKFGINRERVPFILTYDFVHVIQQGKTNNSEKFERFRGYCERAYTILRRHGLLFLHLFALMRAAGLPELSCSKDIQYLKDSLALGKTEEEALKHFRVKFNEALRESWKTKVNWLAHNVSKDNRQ

PI3K alpha = target: T3, PI3K alpha (Homo sapiens, UniProt P42336); assay: Enzymatic PI3K alpha isoform inhibition (lipid kinase activity, Kinase-Glo); assay type: biochemical; details: enzymatic assay
T3 construct: for the p110-a subunit (with a deletion of the first 20 amino acids) are generated; His tag (C); made in house; host or cells: baculovirus BV1075; Tn5 (Trichoplusia ni) or TiniPro insect cells
T3 sequence (P42336 with tags, fused parts or gaps limits assumed, species assumed): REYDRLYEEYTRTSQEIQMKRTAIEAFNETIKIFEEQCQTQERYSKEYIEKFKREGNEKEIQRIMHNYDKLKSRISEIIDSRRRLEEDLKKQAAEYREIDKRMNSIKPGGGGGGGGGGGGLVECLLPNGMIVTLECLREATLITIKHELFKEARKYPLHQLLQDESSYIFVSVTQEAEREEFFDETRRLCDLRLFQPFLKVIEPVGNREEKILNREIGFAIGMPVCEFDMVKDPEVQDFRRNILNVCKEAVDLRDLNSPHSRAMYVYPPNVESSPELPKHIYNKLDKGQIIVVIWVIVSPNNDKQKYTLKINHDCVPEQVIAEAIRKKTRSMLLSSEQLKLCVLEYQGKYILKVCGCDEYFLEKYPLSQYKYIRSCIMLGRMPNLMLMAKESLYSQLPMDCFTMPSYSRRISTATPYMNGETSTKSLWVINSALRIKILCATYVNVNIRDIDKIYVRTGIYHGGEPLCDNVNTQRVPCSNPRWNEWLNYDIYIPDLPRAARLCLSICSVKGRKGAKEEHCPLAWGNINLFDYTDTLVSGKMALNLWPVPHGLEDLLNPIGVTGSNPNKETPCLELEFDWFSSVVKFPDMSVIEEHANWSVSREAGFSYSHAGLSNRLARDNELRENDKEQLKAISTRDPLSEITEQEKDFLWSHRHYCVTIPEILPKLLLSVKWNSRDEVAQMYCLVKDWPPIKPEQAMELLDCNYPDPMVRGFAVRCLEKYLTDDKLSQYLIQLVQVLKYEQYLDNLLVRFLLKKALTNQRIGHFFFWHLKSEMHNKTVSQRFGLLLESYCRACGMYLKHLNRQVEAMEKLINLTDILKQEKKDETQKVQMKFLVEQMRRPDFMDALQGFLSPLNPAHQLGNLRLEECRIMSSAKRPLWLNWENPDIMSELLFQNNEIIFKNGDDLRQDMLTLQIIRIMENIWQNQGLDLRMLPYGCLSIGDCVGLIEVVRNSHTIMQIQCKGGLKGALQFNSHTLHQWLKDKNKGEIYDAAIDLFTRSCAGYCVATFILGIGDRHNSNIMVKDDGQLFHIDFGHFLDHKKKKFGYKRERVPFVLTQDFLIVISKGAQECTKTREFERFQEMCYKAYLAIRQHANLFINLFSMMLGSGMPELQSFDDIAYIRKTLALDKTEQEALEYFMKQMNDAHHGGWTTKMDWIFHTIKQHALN
How it was run: as §1

Q: How did the IC50 (PI3K delta [1]) turn out when `CNc1ncc(-c2ccc3ncnc(-c4cncc(C(=O)N5CCN(C)CC5)c4)c3c2)cc1C` [Example 75, {5-[6-(5-Methyl-6-methylamino-pyridin-3-yl)-quinazolin-4-yl]-pyridin-3-yl}-(4-methyl-piperazin-1-yl)-methanone] was run?
A: Its IC50 is 0.014 µM.

Q: What about the IC50 (PI3K delta [2]) of the same compound?
A: Its IC50 is 0.012 µM.

Q: What about the IC50 (PI3K alpha) of the same compound?
A: Its IC50 is 0.32 µM.

Q: With `COc1ncc(-c2ccc3ncnc(-c4cccc(C(=O)N5CCN(C)CC5)c4)c3c2)cn1` [Example 2] as the compound, how does the IC50 (PI3K delta [1]) read?
A: The IC50 was 0.0275 µM.

Q: What about the IC50 (PI3K delta [2]) of the same compound?
A: The IC50 was 0.0095 µM.

Q: What about the IC50 (PI3K alpha) of the same compound?
A: The IC50 was 0.779 µM.

Q: For `COc1ccc(-c2ccc3ncnc(-c4ccc(C)c(C(=O)N5CC6CC5CN6C)c4)c3c2)cn1` (stereo not drawn) [Example 117], which IC50 (PI3K delta [1]) is on record?
A: Its IC50 is 0.043 µM.

Q: What about the IC50 (PI3K delta [2]) of the same compound?
A: The IC50 was 0.009 µM.

Q: And the IC50 (PI3K alpha)?
A: The IC50 was 0.238 µM.

Q: `COc1ccc(-c2ccc3ncnc(-c4cc(F)cc(C(=O)N5CCN(C(C)=O)CC5)c4)c3c2)cn1` [Example 110, 1-(4-{3-Fluoro-5-[6-(6-methoxy-pyridin-3-yl)-quinazolin-4-yl]-benzoyl}-piperazin-1-yl)-ethanone] was tested. Which IC50 (PI3K delta [1]) did it give?
A: Its IC50 is 0.103 µM.

Q: And the IC50 (PI3K delta [2])?
A: Its IC50 is 0.008 µM.

Q: What about the IC50 (PI3K alpha) of the same compound?
A: Its IC50 is 0.366 µM.

Q: What does the source list for `COc1ccc(-c2ccc3ncnc(-c4cccc(C(=O)N5CCN(C(C)=O)CC5)c4)c3c2)cc1S(=O)(=O)N1CCCC1` [Example 7]?
A: IC50 (PI3K delta [1]): 0.083 µM; IC50 (PI3K delta [2]): 0.006 µM; IC50 (PI3K alpha): 0.712 µM

Q: For `COc1ccc(-c2ccc3ncnc(-c4cccc(C(=O)N5C[C@@H]6C[C@H]5CN6C)c4)c3c2)cn1` [Example 91, {3-[6-(6-Methoxy-pyridin-3-yl)-quinazolin-4-yl]-phenyl}-((1S,4S)-5-methyl-2,5-diaza-bicyclo[2.2.1]hept-2-yl)-methanone], which IC50 (PI3K delta [1]) is on record?
A: Its IC50 is 0.0323 µM.

Q: And the IC50 (PI3K delta [2])?
A: Its IC50 is < 0.003 µM.

Q: What about the IC50 (PI3K alpha) of the same compound?
A: The IC50 was 0.146 µM.

Q: How did the IC50 (PI3K delta [1]) turn out when `COc1ccc(-c2ccc3ncnc(-c4cncc(C(=O)N5CCNC(C)(C)C5)c4)c3c2)cc1C(F)(F)F` [Example 81, (3,3-Dimethyl-piperazin-1-yl)-{5-[6-(4-methoxy-3-trifluoromethyl-phenyl)-quinazolin-4-yl]-pyridin-3-yl}-methanone] was run?
A: The IC50 was 0.0195 µM.

Q: What about the IC50 (PI3K delta [2]) of the same compound?
A: Its IC50 is 0.00363 µM.

Q: What about the IC50 (PI3K alpha) of the same compound?
A: The IC50 was 0.401 µM.
